From patent US7452695B2, “Methods for increasing polypeptide production” (Immunex Corporation, priority 2002, dated 2008)
Values joined by “and” are separate entries in the source; they are usually repeats but may differ in a detail not shown here. Equal values may be shown once. Read-outs that look alike come from different tables or passages of the source.

Experiments:
[1] = test system: CHO cells stably transformed with nucleic acids encoding RANK:Fc; test: Production of RANK:Fc with HMBA, caffeine and/or butyric acid, shaker flask, 5 days at 31° C. (Example 8); assay type: cell-based, Chinese hamster
Description: Nucleic acids encoding RANK:Fc inserted into a suitable vector (as described in International Application WO 01/36637) were introduced into CHO cells. […] Cells were grown for a total of 5 days in shaker flasks. Thereafter, all medium was harvested. The number of cells present in the culture was determined by staining with trypan blue and counting the cells in a hemocytometer. […] An average number of cells in the culture was calculated by averaging the starting and ending cell numbers. Specific productivity was determined from the total number of micrograms of RANK:Fc produced, an average cell number (calculated as described above), and the number of days of growth. Nucleic acids encoding RANK:Fc inserted into a suitable vector (as described in International Application WO 01/36637) were introduced into CHO cells. […] Cells were grown for a total of 5 days in a shaker flask. Thereafter, all medium was harvested. The number of cells present in the culture, the titer of RANK:Fc per milliliter of harvested medium, and specific productivity were determined as described above in Example 7.

[2] = test system: CHO cells stably transformed with nucleic acids encoding RANK:Fc; test: Production of RANK:Fc with varying amounts of HMBA, shaker flasks, 5 days at 31° C. (Example 7); assay type: cell-based, Chinese hamster
Description: Nucleic acids encoding RANK:Fc inserted into a suitable vector (as described in International Application WO 01/36637) were introduced into CHO cells. […] Cells were grown for a total of 5 days in shaker flasks. Thereafter, all medium was harvested. The number of cells present in the culture was determined by staining with trypan blue and counting the cells in a hemocytometer. […] An average number of cells in the culture was calculated by averaging the starting and ending cell numbers. Specific productivity was determined from the total number of micrograms of RANK:Fc produced, an average cell number (calculated as described above), and the number of days of growth.

[3] = test system: CHO cells stably transformed with nucleic acids encoding an antibody against a murine IL-4 receptor
[4] = test system: CHO cells stably transformed with nucleic acids encoding a type II IL-1 receptor; test: Production of type II IL-1 receptor with HMBA in a bioreactor (Example 9); assay type: cell-based, Chinese hamster; conditions: 2 mM, added at shift to 31° C. after 2 days at 37° C., 12 more days
Description: About 500 thousand cells from a stably transformed line were inoculated into a one liter of serum-free medium in a bioreactor. Cells were grown for two days at 37° C. Thereafter, cells were shifted to 31° C., either without HMBA or in the presence of 2 mM HMBA, and grown for 12 more days. Thereafter, all medium was harvested. […] Data from this experiment are shown in Table 6 as a percentage of the average of the protein titers obtained from the two samples without HMBA rounded to the nearest whole number.

cell line #9 = test: Induction effects of xanthine derivatives in cell line #9, shake flasks, 6 days at 31° C. (Example 5); assay type: cell-based, Chinese hamster; conditions: for protein titer compared with the no inducer control culture: concentrations of Table 3 (0.1-1 mM xanthines; 0.5 mM butyrate)
Description: To dissolve 3-isobutyl-1-methylxanthine (IBX), it was solubilized in water heated to almost the boiling point, and quickly added to the flasks before it precipitated. […] The induction phase of the cell culture was carried out for 6 days at 31° C., and samples were removed for analysis at 3 day and 6 day timepoints.

[5] = test system: CHO cell production line genetically engineered to express TNFR:Fc (cell line #5); test: Induction of TNFR:Fc expression, shaker flasks, 5 days at 31° C. (Example 1); assay type: cell-based, Chinese hamster
Description: CHO cells were grown in spinner flasks at 37° C. using serum-free growth medium containing methotrexate. […] The cells, at initial cell densities of 2×10^6 cells/ml in 20 ml, were placed in 125 ml plastic Erlenmeyer flasks with plug seal caps and placed on shaker platforms in incubators set to the appropriate temperatures. Cell viability and number were monitored by haemocytometer counting using trypan blue dye. Recombinant polypeptide titers were assessed by ELISA-based assays. […] A flask containing no inducing compound was also included. The shaker flasks were incubated in this induction phase for 5 days at 31° C. in incubators without carbon dioxide control.

SMILES: CCCC(=O)O [Butyric acid, butyric acid]
- Specific productivity (μg/10^6 cells/day) ([1]; 0.5 mM): 31.6 μg/10^6 cells/day
- Titer of RANK: Fc ([1]; 0.5 mM): 476 µg/mL

SMILES: CC(=O)NCCCCCCNC(C)=O [HMBA, hexamethylene bisacetamide]
- Specific productivity (μg/10^6 cells/day) ([2]; 0.1 mM): 19.1 μg/10^6 cells/day
- Titer of RANK: Fc ([2]; 0.1 mM): 243 µg/mL
- Specific productivity (μg/10^6 cells/day) ([2]; 0.5 mM): 19.5 μg/10^6 cells/day
- Titer of RANK: Fc ([2]; 0.5 mM): 347 µg/mL
- Specific productivity (μg/10^6 cells/day) ([2]; 2.0 mM): 23.9 μg/10^6 cells/day
- Titer of RANK: Fc ([2]; 2.0 mM): 444 µg/mL
- production of the antibody compared with no inducer ([3]; 2 mM): enhanced production of the antibody
- extent of enhancement of antibody production compared with sodium butyrate (0.5 mM) ([3]; 2 mM, 31° C.): to a greater extent than did sodium butyrate
- Specific productivity (μg/10^6 cells/day) ([1]; 2 mM): 22.8 μg/10^6 cells/day
- Titer of RANK: Fc ([1]; 2 mM): 410 µg/mL
- Relative Titer of type II IL-1 Receptor (percent of average of samples without HMBA) [4]: 120% and 125%

SMILES: CC(C)Cn1c(=O)n(C)c(=O)c2[nH]cnc21 [IBX, 3-isobutyl-1-methylxanthine]
- Titer (μg/ml) Day 3 (cell line #9; 0.5 mM): 150 µg/mL
- Titer (μg/ml) Day 6 (cell line #9; 0.5 mM): 420 µg/mL
- production compared with caffeine (cell line #9; 0.5 mM): even better than caffeine

SMILES: Cn1c(=O)c2[nH]cnc2n(C)c1=O [aminophylline, theophylline compound with 1,2-ethylenediamine (2:1) dihydrate]
- Titer (μg/ml) Day 3 (cell line #9; 0.1 mM): 110 µg/mL
- Titer (μg/ml) Day 6 (cell line #9; 0.1 mM): 260 µg/mL
- Titer (μg/ml) Day 3 (cell line #9; 0.5 mM): 120 µg/mL
- Titer (μg/ml) Day 6 (cell line #9; 0.5 mM): 250 µg/mL
- Titer (μg/ml) Day 3 (cell line #9; 1 mM): 100 µg/mL
- Titer (μg/ml) Day 6 (cell line #9; 1 mM): 200 µg/mL
- protein titer compared with the no inducer control culture (cell line #9): did not induce protein titers above that seen in the no inducer control culture

SMILES: CCCC(=O)[O-].[Na+] [butyrate, sodium butyrate]
- Titer (μg/ml) Day 3 (cell line #9; 0.5 mM): 100 µg/mL
- Titer (μg/ml) Day 6 (cell line #9; 0.5 mM): 220 µg/mL
- protein titer compared with the no inducer control culture (cell line #9): does not induce increased protein titer over that seen in a culture with no inducer
- production of the antibody compared with no inducer ([3]; 0.5 mM): enhanced production of the antibody
- rate (in μg protein/10^6 cells/day) relative to control cultures ([5]; 0.2 mM): about 1.07 times the rate of control cultures
- total protein (in μg/ml) relative to control culture ([5]; 0.2 mM): about 1.11 times the total protein produc

SMILES: Cn1c(=O)c2c(ncn2C)n(C)c1=O [caffeine, 1,3,7-trimethylxanthine]
- rate of production compared with 0.2 mM butyrate culture ([5]; 0.5 mM): slightly higher rates of production
- rate of productivity per cell compared with no inducing agent ([5]; 2 mM): higher
- Specific productivity (μg/10^6 cells/day) ([1]; 1 mM): 23.6 μg/10^6 cells/day
- Titer of RANK: Fc ([1]; 1 mM): 362 µg/mL

SMILES: Cn1cnc2c1c(=O)[nH]c(=O)n2C [theobromine, 3,7-dimethylxanthine]
- Titer (μg/ml) Day 3 (cell line #9; 0.1 mM): 90 µg/mL
- Titer (μg/ml) Day 6 (cell line #9; 0.1 mM): 270 µg/mL
- Titer (μg/ml) Day 3 (cell line #9; 0.5 mM): 100 µg/mL
- Titer (μg/ml) Day 6 (cell line #9; 0.5 mM): 260 µg/mL
- Titer (μg/ml) Day 3 (cell line #9; 1 mM): 100 µg/mL
- Titer (μg/ml) Day 6 (cell line #9; 1 mM): 260 µg/mL
- protein titer compared with the no inducer control culture (cell line #9): did not induce protein titers above that seen in the no inducer control culture
